Test results published in patent publication US20200369996A1, “Bioreactor Screening Platform for Modelling Human Systems Biology and for Screening for Inotropic Effects of Agents on the Heart” (NOVOHEART LIMITED, priority 2017, published 2020).
“And” between values parts separate entries of the source, which are not always exact repeats. Identical values can stand only once. Like-named read-outs stand apart in the source and are kept apart here.

Tests used:
[1] = tested on: human ventricular cardiac tissue strips (hvCTS); assay: hvCTS drug screening: twitch force under electrical pacing; format: cell-based; settings: for EC50 / IC50: Homo sapiens; for IC50: read-out: IC50, developed contractile force
Experimental: One of ordinary skill in the art will recognize that the gels can be formed in any of a variety of sizes and shapes, and the molds used to form such gels can also be formed in any of a variety of sizes and shapes, depending on the intended use of the molded gel. The molded mixtures were then bathed with culture medium (DMEM supplemented with 10% newborn calf serum), and maintained in culture with daily half-medium exchanges. Inserts in the casting molds were removed at 48 hours, yielding a self-assembled hvCTS held between 0.5-mm-diameter circular PDMS posts at each end. It is apparent that the posts can be formed from any flexible material amenable to at least one form of sterilization are suitable. As noted above, the whole mold can be scaled up or down depending on the application, and the posts can also be scaled up or down. In general, the height of the posts would be similar to the height of a well (e.g., about 6 mm in an exemplary embodiment). Any of a wide variety of cross-sectional shapes is contemplated as being suitable for use in the system, apparatus and methods according to the disclosure. At 7 days after hvCTS creation, the hvCTS were used for drug screening.
Initially, pharmacological compounds were prepared for screening. Compounds for unblinded “open label” screening were purchased from Sigma and stock solutions at the highest possible concentrations were prepared according to the product information. Working concentrations over a 5-logarithmic range were prepared for each drug.
Working concentrations over a 5-logarithmic range were prepared for each drug according to the dose-range recommendation provided by the supplier.
New born calf serum containing medium was replaced with DMEM high glucose with HEPES without phenol red for optical measurement of generated force in hvCTS. […] The integrated flexible PDMS posts were used as force sensors, with the post deflection captured in real-time with a high-speed camera (100 frames/s) and LabView software (National Instruments, Austin, Tex., USA), applying a beam-bending equation from elasticity theory to calculate twitch force, as described previously^[2] and incorporated herein by reference. These measurements were obtained with the hvCTS maintained in the original molds where they were created with the hvCTS bathed in culture medium at 37° C. For each drug, force generated in response to 9 doses were measured with the drugs added to the hvCTS at half log increments in a cumulative manner. For each dose, the force generated at 0 Hz, 0.5 Hz, 1 Hz, 1.5 Hz and 2 Hz electrical pacing with field electrodes were measured.
Data analysis. Data were calculated and analyzed by a customized MatLab program. Force frequency curves for each drug were generated by plotting the generated force at 0.5 Hz, 1 Hz, 1.5 Hz and 2 Hz at different concentrations. All forces were normalized to the generated force at 0.5 Hz at the drug-free baseline condition (100%).
[…] The force generated under drug-free baseline condition was defined as 100%. The force generated at each drug concentration was then normalized to the generated force under the cognate drug-free baseline condition. The EC50 of each tested drug was estimated by fitting to a four-parameter dose-response equation given as: Y=Bottom+(Top-Bottom)/(1+10^((Log EC^50^−X)*HillSlope)), using commercial software (GraphPad Software Inc.). X is the logarithm of drug concentrations; […]; Top and Bottom are the Y values of the top and bottom plateaus of the curve itself; Baseline is the Y value that defines 0%—maximal inhibition by a standard drug. Hill Slope quantifies the steepness of the dose-response curve (the higher the Hill Slope, the steeper the curve).

human atrial trabeculae = settings: ref [13]; cited from earlier work
rat atrial trabeculae = settings: ref [14]; cited from earlier work
[2] = cited from earlier work; for peak plasma concentration for improved ejection fraction and work product: ref [17]
canine papillary muscle = settings: ref [11]; cited from earlier work
[3] = tested on: chick embryonic ventricular cells; settings: ref [9]; cited from earlier work
[4] = tested on: human right atrial trabeculae; settings: ref [21]; cited from earlier work
[5] = tested on: human atrial and ventricular cardiomyocytes; settings: ref [8]; cited from earlier work
[6] = tested on: isolated human atrial tissue; settings: isolated human atrial tissue from cardiac bypass; ref [6]; cited from earlier work
[7] = 1 Hz pacing, unblinded screening, Example 3, read-out: EC50, developed contractile force
[8] = Unblinded, 1 Hz pacing, read-out: -log EC50 in hvCTS (converted)
[9] = Unblinded, 1 Hz pacing, read-out: EC50 in hvCTS (in brackets)
[10] = 1 Hz pacing, blinded screening, Example 4, read-out: EC50, developed contractile force
[11] = Blinded, 1 Hz pacing, read-out: -log EC50 in hvCTS (converted)
[12] = Blinded, 1 Hz pacing, read-out: EC50 in hvCTS (in brackets)
[13] = 1 Hz pacing, unblinded screening, Example 3
[14] = 1 Hz pacing, blinded screening, Example 4

## NCCCC[C@H](N[C@@H](CCc1ccccc1)C(=O)O)C(=O)N1CCC[C@H]1C(=O)O [Lisinopril]
[1]; blinded screening, Example 4
  effect on developed contractile force / contractility: small increase in developed contractile force with increasing concentrations

## C[C@@H]1CC(=O)NN=C1c1ccc(NN=C(C#N)C#N)cc1 [Levosimendan]
[1]; [7]
  EC50: 0.15 µM
[1]; [8]
  EC50: 0.145 µM
[1]; [9]
  EC50: 0.15 µM
Human atrial trabeculae
  relevant concentration: 0.19 μM [13], human atrial trabeculae

## NCCc1ccc(O)c(O)c1 [Dopamine]
[1]; blinded screening, Example 4
  effect on developed contractile force / contractility: did not significantly affect the developed contractile force
Rat atrial trabeculae
  relevant concentration: 20 μM [14], in rat atrial trabeculae

## NC[C@H](O)c1ccc(O)c(O)c1 [Norepinephrine]
[1]; [10]
  EC50: 0.35 µM
[1]; [11]
  EC50: 0.347 µM
[1]; [12]
  EC50: 0.35 µM
[2]; ref [24]
  plasma level after epinephrine infusion: 267 pg/ml and 0.15 nM

## C[C@H]1O[C@@H](O[C@H]2[C@@H](O)C[C@H](O[C@H]3[C@@H](O)C[C@H](O[C@H]4CC[C@@]5(C)[C@H](CC[C@@H]6[C@@H]5C[C@@H](O)[C@]5(C)[C@@H](C7=CC(=O)OC7)CC[C@]65O)C4)O[C@@H]3C)O[C@@H]2C)C[C@H](O)[C@@H]1O [Digoxin]
[1]; read-out: -log EC50 in hvCTS (converted)
  EC50: 3.63 µM
[1]; read-out: EC50, developed contractile force
  EC50: 3.7 µM
[1]; read-out: EC50 in hvCTS (in brackets)
  EC50: 3.65 µM
[2]; ref [10]
  relevant concentration, increased pre-ejection period index: 1 ng/ml (1 nM) ([10], increased pre-ejection

## Cc1cccc(C)c1NC(=O)C(C)N (centres unmarked) [Tocainide]
[1]; all concentrations and pacing frequencies, unblinded screening, Example 3
  effect on developed contractile force: did not show any effect on developed contractile force
[1]; all tested pacing frequencies, Example 2 / FIG. 2
  effect on developed contractile force: no dose-dependent effect on contractile force
[1]; all tested pacing frequencies, Example 2 / FIG. 2, listed as tocainide
  effect on developed contractile force: No consistent change in developed contractile force
Canine papillary muscle
  EC50 of developed tension: 1212 μg [11], EC50 of developed tension in canine

## CCN(CC)CCNC(=O)c1ccc(N)cc1 [Procainamide]
Canine papillary muscle
  EC50 of developed tension: 7952 μg [11], EC50 of developed tension in canine

## Cn1c(=O)c2c(ncn2C)n(C)c1=O [Caffeine]
[1]; [10]
  EC50: 0.29 µM
[1]; [11]
  EC50: 0.288 µM
[1]; [12]
  EC50: 0.287 µM
[3]
  relevant concentration: 20 mM [9], in chick embryonic ventricular cells

## COC(=O)C1=C(C)NC(C)=C(C(=O)OC)C1c1ccccc1[N+](=O)[O-] [Nifedipine]
[2]; ref [23]
  plasma concentration in patients with ischemic heart disease: 29-73 ng/ml and 0.083-0.21 μM

## CC(=O)Oc1ccccc1C(=O)O [Aspirin]
[1]; blinded screening, Example 4
  effect on developed contractile force / contractility: did not show any dose-dependent effect on contractility

## COCC(=O)O[C@]1(CCN(C)CCCc2nc3ccccc3[nH]2)CCc2cc(F)ccc2[C@@H]1C(C)C [Mibefradil]
[1]; [13]
  IC50: 38 µM
[1]; [8]
  EC50: 3.16 µM
[1]; [9]
  EC50: 3.39 µM
[4]
  IC50: 24.5 µM

## COc1ccc(Cl)cc1C(=O)NCCc1ccc(S(=O)(=O)NC(=O)NC2CCCCC2)cc1 [Glibenclamide]
[1]; [10]
  EC50: 3.2 µM
[1]; [7]
  EC50: 0.93 µM
[1]; [11]
  EC50: 3.16 µM
[1]; [12]
  EC50: 3.17 µM
[1]; [8]
  EC50: 0.933 µM
[1]; [9]
  EC50: 0.93 µM
[2]; after 5 mg oral administration
  peak plasma concentration for improved ejection fraction and work product: 479 ng/ml and 0.096 μM

## O=C(NCC1CCCCN1)c1cc(OCC(F)(F)F)ccc1OCC(F)(F)F (centres unmarked) [Flecainide]
[1]; [14]
  IC50: 15 µM
[1]; [7]
  EC50: 75 µM
[1]; [11]
  EC50: 15.1 µM
[1]; [12]
  EC50: 151 µM
[1]; [8]
  EC50: 75.9 µM
[1]; [9]
  EC50: 75 µM

## C=C[C@H]1C[N@@]2CC[C@H]1C[C@@H]2[C@@H](O)c1ccnc2ccc(OC)cc12 [Quinidine]
[1]; [14]
  IC50: 200 µM
[1]; [11]
  EC50: 204 µM
[1]; [12]
  EC50: 200 µM
[2]; at 495 mg, ref [26]
  peak plasma concentration: 2.07 μg/ml and 6.3 μM

## CCCCNC(=O)NS(=O)(=O)c1ccc(C)cc1 [Tolbutamide]
[1]; blinded screening, Example 4
  effect on developed contractile force / contractility: did not show any dose-dependent effect on contractility
[2]; after 1250 mg oral administration
  peak plasma concentration for improved ejection fraction and work product: 63.5 μg/ml and 230 μM

## CC(C)COCC(CN(Cc1ccccc1)c1ccccc1)N1CCCC1 (centres unmarked) [Bepridil]
[1]; [13]
  IC50: 3.3 µM
[1]; [8]
  EC50: 38 µM
[1]; [9]
  EC50: 37.9 µM
[5]
  relevant concentration: 100 μM [8], human atrial and ventricular

## CC(C)N(CCC(C(N)=O)(c1ccccc1)c1ccccn1)C(C)C (centres unmarked) [Disopyramide]
[1]; [7]
  EC50: 80 µM
[1]; [8]
  EC50: 81.3 µM
[1]; [9]
  EC50: 82.2 µM
Canine papillary muscle
  EC50 of developed tension: 824 μg [11], EC50 of developed tension in canine

## Cc1[nH]c(=O)c(C#N)cc1-c1ccncc1 [Milrinone]
[1]; [10]
  EC50: 2.8 µM
[1]; [7]
  EC50: 0.41 µM
[1]; [11]
  EC50: 2.75 µM
[1]; [12]
  EC50: 2.77 µM
[1]; [8]
  EC50: 0.407 µM
[1]; [9]
  EC50: 0.41 µM

## CN(C)CCC=C1c2ccccc2CCc2ccccc21 [Amitriptyline]
[1]; [14]
  IC50: 450 µM
[1]; [11]
  EC50: 447 µM
[1]; [12]
  EC50: 450 µM
[2]; ref [5]
  plasma concentration in psychiatric patients: 98-208 ng/mL and 0.35-0.74 μM
[6]
  30-60% effective concentration: 40-400 μM [6], 30-60% effective concentration

## CCOC(=O)[C@H](CCc1ccccc1)N[C@@H](C)C(=O)N1[C@H](C(=O)O)C[C@@H]2CCC[C@@H]21 [Ramipril]
[1]; blinded screening, Example 4
  effect on developed contractile force / contractility: did not show any dose-dependent effect on contractility

## CC(CCc1ccc(O)cc1)NCCc1ccc(O)c(O)c1 (centres unmarked) [Dobutamine]
[1]; [10]
  EC50: 0.25 µM
[1]; [7]
  EC50: 0.015 µM
[1]; [11]
  EC50: 0.245 µM
[1]; [12]
  EC50: 0.25 µM
[1]; [8]
  EC50: 0.0151 µM
[1]; [9]
  EC50: 0.015 µM
[2]; ref [12]
  peak plasma concentration with increased cardiac output: 147-152 ng/ml and 0.487-0.5 μM
Human atrial trabeculae
  relevant concentration: 0.217 μM [13], human atrial trabeculae
